Source: US20210147544A1, “METHODS AND COMPOSITIONS FOR TARGETED DELIVERY OF ACTIVE AGENTS AND IMMUNOMODULATORY AGENTS TO LYMPH NODES” (IMMUNOVACCINE TECHNOLOGIES INC., priority 2018, published 2021)

Columns and labels:
[1] = tested on: lymph node cells; type: in vivo, C57BL/6 mice; conditions: group E: 20 mg/kg/day CPA in drinking water for seven days before FP/PolyI:C composition; vs group F
Procedure: Pathogen free, C57BL/6 mice, 6-8 weeks of age, were purchased from Charles River Laboratories (St. Constant, PQ) and housed according to institutional guidelines with water and food ad libitum under filter controlled air circulation.
(§1) Mice in group A (n=5) were injected in the right flank with 50 microliters of the CPA composition containing 0.04 milligrams of CPA and injected in the left flank with 50 microliters of the FP/DNA based PolyI:C polynucleotide composition containing 10 micrograms of FP and 20 micrograms of DNA based polyl:C polynucleotide adjuvant.
as §1, with “group B” for “group A”, “containing 0.4” for “containing 0.04”
Mice in group C (n=5) were injected in the right flank with 50 microliters of the CPA/FP/PolyI:C composition containing 0.04 milligrams of CPA and 10 micrograms of FP and 20 micrograms of DNA based polyI:C polynucleotide adjuvant.
Mice in group D (n=5) were injected in the right flank with 50 microliters of the CPA/FP/PolyI:C composition containing 0.4 milligrams of CPA and 10 micrograms of FP and 20 micrograms of DNA based polyI:C polynucleotide adjuvant. […]

[2] = Evans Blue (EVB) positive cells in LN, blood, liver, spleen by flow cytometry; type: in vivo, C57B1/6 mice
Procedure: (§2) C57B1/6 mice (n=3 per time point) were injected subcutaneously on study day 0 with 1 mg of Evans Blue (EVB) dye formulated either in a composition of the invention (DPX, group 1) or in an aqueous solution (group 2). Control groups were injected subcutaneously with DPX not containing EVB (group 3) or not given an injection (group 4). DPX compositions were prepared according to the methods detailed in Example 1. The freeze-dried vial was reconstituted in Montanide® ISA 51 VG (SEPPIC, France). Cells were collected from the vaccine-draining lymph nodes (LN), blood, liver, and spleen from 2-3 mice of each group on study days 1, 2, 5, and 7, and the cells were stained to detect different cell populations by flow cytometry.
EVB (MW 960.81 g/mol) is a membrane impermeant dye with high affinity for serum albumin that can penetrate into non-viable cells or be actively internalized by phagocytic cells, such as macrophages and dendritic cells.

[3] = Photographs of plasma, skin and draining lymph node after EVB injection; type: in vivo, C57B1/6 mice
Procedure: as §2

[4] = Body weights of C3 tumour mice during EPA treatment; type: in vivo; conditions: all with mCPA (PO), oral EPA given with DPX-FP
Procedure: Mice (n=8 per group) were implanted with C3 cancer cells on study day 0. Mice in all treatment groups were treated with 0.4 mg metronomic cyclophosphamide (mCPA) daily for seven days through drinking water starting on study day 7 and 21 (oral administration: PO). One group was untreated as a control. One treatment group was treated with epacadostat (EPA) through oral gavage 6 mg/day for five days starting on study day 14 for a total EPA dose of 30 mg over 5 days. Mice were treated with a composition of the invention (DPX) containing either FP alone (DPX-FP) or FP in combination with EPA (DPX-FP/EPA, 1 mg EPA). DPX was administered by subcutaneous injection to the treatment groups on study day 14 and 28, for a total EPA dose of 2mg over […] in the group receiving DPX-FP/EPA. The DPX compositions were prepared according to the methods detailed in Example 1. All DPX-FP and DPX-FP/EPA formulations contained 20 micrograms of DNA based PolyI:C polynucleotide adjuvant. The freeze-dried vials were reconstituted in 0.7 mL of Montanide® ISA 51 VG (SEPPIC, France) to obtain a clear solution (FIG. 1; Panel D).

[5] = AlexaFluor488 (AF488) positive cells in LN, blood, liver, spleen by flow cytometry; type: in vivo, C57B1/6 mice
Procedure: as §2, with “mice (n=2-3” for “mice (n=3”, “with 0.1” for “with 1”, “of AlexaFluor488 hydrazide (AF488)” for “of Evans Blue (EVB)”, “containing AF488” for “containing EVB”
AF488 (MW 773.91 g/mol) is a membrane impermeant fluorescent dye that can be actively internalized by phagocytic cells, such as macrophages and dendritic cells.

[6] = 1 mg EVB s.c., days 1, 2, 5, 7, significance compared to group 3
[7] = by day 2, including CD3+ T cells
[8] = 0.1 mg AF488 s.c., days 1, 2, 5, 7, significance compared to group 3

**Q.** With `O=P1(N(CCCl)CCCl)NCCCO1` (centres unmarked) [CPA, N,N-bis(2-chloroethyl)-1,3,2-oxazaphosphinan-2-amine 2-oxide] as the compound, how does the “total lymph node cell counts” value [1] read?
**A.** The value was “significantly lower cell counts compared to group F”.

**Q.** For `Cc1cc(-c2ccc(/N=N/c3ccc4c(S(=O)(=O)O)cc(S(=O)(=O)O)c(N)c4c3O)c(C)c2)ccc1/N=N/c1ccc2c(S(=O)(=O)O)cc(S(=O)(=O)O)c(N)c2c1O` [EVB in aqueous solution, Evans Blue], which “EVB+ CD11c+ dendritic cells in the liver” value ([2]; 1 mg EVB s.c.) is on record?
**A.** The value was “a large number dendritic cells were EVB+ by day 2”.

**Q.** What about the “EVB+ CD11b+ cells in the LN (FIG. 10A)” value [2, 6] of the same compound?
**A.** The value was “significant number of EVB^+ CD11b^+ cells on all days tested”.

**Q.** What about the “EVB+ CD11b+ cells in the blood (FIG. 10D)” value [2, 6] of the same compound?
**A.** Its value is “significant number of EVB^+ CD11b^+ cells on all days tested”.

**Q.** And the “EVB+ CD11b+ cells in the liver (FIG. 10G)” value [2, 6]?
**A.** The value was “significant number of EVB^+ CD11b^+ cells on all days tested”.

**Q.** And the “EVB+ CD11b+ cells in the spleen (FIG. 10J)” value [2, 6]?
**A.** The value was “significant number of EVB^+ CD11b^+ cells on all days tested”.

**Q.** What about the “EVB+ T cells in the LN (FIG. 10C)” value [2, 6] of the same compound?
**A.** The value was “significant number of EVB^+ T cells on all days tested”.

**Q.** And the “EVB+ T cells in the blood (FIG. 10F)” value [2, 6]?
**A.** Its value is “significant number of EVB^+ T cells on all days tested”.

**Q.** What about the “EVB+ T cells in the liver (FIG. 10I)” value [2, 6] of the same compound?
**A.** Its value is “significant number of EVB^+ T cells on all days tested”.

**Q.** And the “EVB+ T cells in the spleen (FIG. 10L)” value [2, 6]?
**A.** The value was “significant number of EVB^+ T cells on all days tested”.

**Q.** And the “EVB+ dendritic cells in the LN (FIG. 10B)” value [2, 6]?
**A.** Its value is “significant number of EVB^+ dendritic cells on all days tested”.

**Q.** And the “EVB+ dendritic cells in the blood (FIG. 10E)” value [2, 6]?
**A.** Its value is “significant number of EVB^+dendritic cells on all days tested”.

**Q.** And the “EVB+ dendritic cells in the liver (FIG. 10H)” value [2, 6]?
**A.** Its value is “significant number of EVB^+ dendritic cells on days 2 and 7”.

**Q.** What about the “EVB+ dendritic cells in the spleen (FIG. 10K)” value [2, 6] of the same compound?
**A.** Its value is “significant number of EVB^+dendritic cells on all days tested”.

**Q.** And the “EVB release into and clearance from the LN (FIGS. 10A-C)” value ([2]; 1 mg EVB s.c., days 1 to 7)?
**A.** Its value is “had still not been cleared from the LN by day 7”.

**Q.** And the “EVB release into and clearance from the blood (FIGS. 10D-F)” value ([2]; 1 mg EVB s.c., days 1 to 7)?
**A.** Its value is “still not been cleared from the blood by day 7”.

**Q.** And the “EVB release into and clearance from the spleen (FIGS. 10J-L)” value ([2]; 1 mg EVB s.c., days 1 to 7)?
**A.** Its value is “still saturated in CD11b+ macrophages and T cells by day 7”.

**Q.** And the “saturation of cell types in the blood with EVB” value ([2]; 1 mg EVB s.c., days 1 to 7)?
**A.** Its value is “CD11b+ macrophages and CD3+ T cells that were still nearly saturated on day 7”.

**Q.** And the “macrophages and T cells EVB+ in the liver” value ([2]; by day 1-2)?
**A.** Its value is about 100%.

**Q.** And the “cells EVB+ in the spleen” value ([2]; by day 1-2, including CD3+ T cells)?
**A.** The value was about 100%.

**Q.** And the “cells EVB+ in the LN” value [2, 7]?
**A.** The value was about 100%.

**Q.** What about the “cells EVB+ in the blood” value [2, 7] of the same compound?
**A.** Its value is about 100%.

**Q.** What about the “blue colouration of skin, injection site and draining LN (FIG. 13)” value ([3]; 1 mg EVB s.c.) of the same compound?
**A.** Its value is “turned blue”.

**Q.** What about the “colour of plasma (FIG. 12)” value ([3]; days 1, 2, 5, and 7 after injection) of the same compound?
**A.** The value was “dark blue”.

**Q.** Which “weight loss during treatment (body weights)” value [4] does the source give for `NS(=O)(=O)NCCNc1nonc1C(=NO)Nc1ccc(F)c(Br)c1` [oral EPA (PO), epacadostat] here?
**A.** Its value is “significant weight loss during treatment”.

**Q.** Which results are given for “AlexaFluor488 hydrazide [AF488 in aqueous solution]”?
**A.** AF488 release into the blood (FIGS. 11D-F) ([5]; 0.1 mg AF488 s.c.): quickly peaked at day 1; release of AF488 into the spleen (FIGS. 11G-I) ([5]; 0.1 mg AF488 s.c.): rapid and significant release of AF488 into the spleen in all cell types; AF488+ CD11b+ cells in the LN (FIG. 11A) [5, 8]: significant number of AF488^+CD11b^+ cells on days 1 and 2; AF488+ CD11b+ cells in the blood (FIG. 11D) [5, 8]: significant number of AF488^+ CD11b^+ cells on days 1 and 2; AF488+ T cells in the LN (FIG. 11C) [5, 8]: significant number of AF488^+ T cells on day 1; AF488+ T cells in the blood (FIG. 11F) [5, 8]: significant number of AF488^+ T cells on days 1 and 2; AF488+ T cells in the liver (FIG. 11I) [5, 8]: significant number of AF488^+ T cells on all days collected; AF488+ dendritic cells in the LN (FIG. 11B) [5, 8]: significant number of AF488^+ dendritic cells on day 1; AF488+ dendritic cells in the blood (FIG. 11E) [5, 8]: significant number of AF488^+ dendritic cells on days 1 and 2; AF488+ dendritic cells in the liver (FIG. 11H) [5, 8]: significant number of AF488^+ dendritic cells on days 1, 2, and 5; AF488+ monocytes in the liver (FIG. 11G) [5, 8]: significant number of AF488^+ monocytes on days 1, 2, and 5; AF488 release into and clearance from the LN (FIGS. 11A-C) ([5]; 0.1 mg AF488 s.c., days 1 to 7): quickly peaked at day 1 and AF488 was cleared by day 5-7; circulating CD11b+ cells being AF488+ ([5]; blood, days 1-2): over 70%
